From patent publication US7964531B2, “3-phenoxy-4-pyridazinol derivatives and herbicidal composition containing the same” (Mitsui Chemicals Agro, Inc., priority 2001, dated 2011)

What was measured:
Type in all cases: in vivo
[1] = test system: Cyperus serotinus; assay: Test Example 1: herbicidal effects, paddy-field pot test; conditions: wettable powder applied 3 days after transplanting, judged after 25 days
In short: (§1)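 Herbicidal effect and rice injury were graded on a six-step growth-inhibition scale (0: 0–10% to 5: 91–100%) at 25 days after pot application of water-diluted wettable powder, given 3 days post-transplant under flooded greenhouse conditions.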

[2] = test system: Scirpus joncoides; assay: as above; conditions: wettable powder applied 3 days after transplanting, judged after 25 days
In short: as §1

[3] = test system: annual broad-leaved weeds (Lindernia spp., Rotala indica); assay: as above; conditions: wettable powder applied 3 days after transplanting, judged after 25 days
In short: as §1

[4] = test system: barnyardgrass (Echinochloa oryzicola Vasing.); assay: as above; conditions: wettable powder applied 3 days after transplanting, judged after 25 days
In short: as §1

[5] = test system: transplanted paddy-field rice; assay: Test Example 1: crop injury against transplanted paddy-field rice; conditions: wettable powder applied 3 days after transplanting, judged after 25 days
In short: as §1

[6] = test system: barnyardgrass; assay: Test Example 2: herbicidal effects (soil treatment); conditions: dosage 5 kg/a; soil treatment the day after seeding; judged after 21 days
Source text: (§2) Judgment Standard • 0: Growth inhibition rate; 0 to 10% • 1: Growth inhibition rate; 11 to 30% • 2: Growth inhibition rate; 31 to 50% • 3: Growth inhibition rate; 51 to 70% • 4: Growth inhibition rate; 71 to 90% • 5: Growth inhibition rate; 91 to 100%.
(§3) Upland soil was filled in 150 cm^2 pot, and seeds of barnyardgrass and indian mustard (Brassica juncea (L.) Czern. et Coss) were sowed, and grown in a greenhouse. At the next day of seeding, a predetermined chemical dosage of the wettable powder prepared in accordance with Preparation example 1 was diluted in water and applied to soil surface. After 21 days from the treatment, herbicidal effects were judged in accordance with the judgment standard of Test example 1, and the results were shown in Table 3.

[7] = test system: indian mustard (Brassica juncea (L.) Czern. et Coss); assay: as above; conditions: dosage 5 kg/a; soil treatment the day after seeding; judged after 21 days
Source text: as §2, §3

[8] = test system: Cyperus serotinus; assay: Test Example 4: herbicidal effects of mixed wettable powder, paddy-field pot test; conditions: no second compound, after 25 days
In short: (§4)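 Flooded greenhouse pots of paddy soil were sown in the top 1 cm with dormancy-broken weed seeds and planted with tubers, and 2.2-leaf rice was transplanted. Three days later, water-diluted wettable powder was applied at set dosages, and growth inhibition was rated 25 days after that on a 0 (0–15%) to 5 (96–100%) scale.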

[9] = test system: Eleocharis kuroguwai; assay: as above; conditions: no second compound, after 25 days
In short: as §4

[10] = test system: Sagittaria pygmaea; assay: as above; conditions: no second compound, after 25 days
In short: as §4

[11] = test system: Scirpus joncoides; assay: as above; conditions: no second compound, after 25 days
In short: as §4

[12] = test system: annual broad-leaved weeds (Lindernia spp. and Rotala indica); assay: as above; conditions: no second compound, after 25 days
In short: as §4

[13] = test system: barnyardgrass (Echinochloa oryzicola Vasing.); assay: as above; conditions: no second compound, after 25 days
In short: as §4

[14] = test system: transplanted paddy-field rice; assay: Test Example 4: crop injury against transplanted paddy-field rice; conditions: no second compound, after 25 days
In short: as §4

[15] = test system: Cyperus esculentus L.; assay: Test Example 5: herbicidal effects, upland (soil treatment); conditions: after 21 days
Protocol: (§5) Upland soil was filled in 150 cm^2 pot, and seeds of barnyardgrass, Cyperus esculentus L., velvetleaf, black nightshade, tall morningglory and corn were sowed, and grown in a greenhouse. At the next day of seeding, a predetermined chemical dosage of the wettable powder prepared in accordance with Preparation example 5 was diluted with water and applied to soil surface. After 21 days from the treatment, herbicidal effects and crop injury against corn were judged according to the following judgment standard, and the results were shown in Tables 6 to 8.
(§6) Judgment Standard • 0: Growth inhibition rate; 0 to 9% • 1: Growth inhibition rate; 10 to 19% • 2: Growth inhibition rate; 20 to 29% • 3: Growth inhibition rate; 30 to 39% • 4: Growth inhibition rate; 40 to 49% • 5: Growth inhibition rate; 50 to 59% • 6: Growth inhibition rate; 60 to 69% • 7: Growth inhibition rate; 70 to 79% • 8: Growth inhibition rate; 80 to 89% • 9: Growth inhibition rate; 90 to 98% • 10: Growth inhibition rate; 99 to 100%.

[16] = test system: barnyardgrass; assay: as above; conditions: after 21 days
Protocol: as §5, §6

[17] = test system: black nightshade; assay: as above; conditions: after 21 days
Protocol: as §5, §6

[18] = test system: tall morningglory; assay: as above; conditions: after 21 days
Protocol: as §5, §6

[19] = test system: velvetleaf; assay: as above; conditions: after 21 days
Protocol: as §5, §6

[20] = test system: corn; assay: Test Example 5: crop injury against corn (soil treatment); conditions: after 21 days
Protocol: as §5, §6

[21] = test system: Cyperus esculentus L.; assay: Test Example 6: herbicidal effects, upland (foliar treatment); conditions: after 14 days
Source text: as §6
(§7) Upland soil was filled in 150 cm^2 pot, and seeds of barnyardgrass, Cyperus esculentus L., velvetleaf, black nightshade, tall morningglory and corn were sowed, and grown in a greenhouse. After the weeds were grown with 10 to 15 cm or so, a predetermined chemical dosage of the wettable powder prepared in accordance with Preparation example 5 was diluted with water containing 0.05% of GRAMIN S and applied as a foliar treatment. After 14 days from the treatment, herbicidal effects and crop injury were judged in accordance with the judgment standard of Test example 5, and the results were shown in Tables 9 and 10. Incidentally, “-” in the table means no effective ingredient was contained.

[22] = test system: barnyardgrass; assay: as above; conditions: after 14 days
Source text: as §6, §7

[23] = test system: black nightshade; assay: as above; conditions: after 14 days
Source text: as §6, §7

[24] = test system: tall morningglory; assay: as above; conditions: after 14 days
Source text: as §6, §7

[25] = test system: velvetleaf; assay: as above; conditions: after 14 days
Source text: as §6, §7

[26] = test system: corn; assay: Test Example 6: crop injury against corn (foliar treatment); conditions: after 14 days
Source text: as §6, §7

SMILES: Cc1cccc(Br)c1Oc1nnc(Cl)cc1O [Example 249]
- Herbicidal effects Cyperus serotinus ([1]; chemical dosage 10 g/a): 5 (Growth inhibition rate; 91 to 100%)
- Herbicidal effects Cyperus serotinus ([1]; chemical dosage 20 g/a): 5 (Growth inhibition rate; 91 to 100%)
- Herbicidal effects Scirpus joncoides ([2]; chemical dosage 10 g/a): 5 (Growth inhibition rate; 91 to 100%)
- Herbicidal effects Scirpus joncoides ([2]; chemical dosage 20 g/a): 5 (Growth inhibition rate; 91 to 100%)
- Herbicidal effects Broad leaf ([3]; chemical dosage 10 g/a): 5 (Growth inhibition rate; 91 to 100%)
- Herbicidal effects Broad leaf ([3]; chemical dosage 20 g/a): 5 (Growth inhibition rate; 91 to 100%)
- Herbicidal effects Barnyard grass ([4]; chemical dosage 10 g/a): 2 (Growth inhibition rate; 31 to 50%)
- Herbicidal effects Barnyard grass ([4]; chemical dosage 20 g/a): 3 (Growth inhibition rate; 51 to 70%)
- Crop injury against transplanted rice ([5]; chemical dosage 10 g/a): 0 (Growth inhibition rate; 0 to 10%)
- Crop injury against transplanted rice ([5]; chemical dosage 20 g/a): 3 (Growth inhibition rate; 51 to 70%)
- Herbicidal effects Barnyard-grass [6]: 4 (Growth inhibition rate; 71 to 90%)
- Herbicidal effects indian mustard [7]: 5 (Growth inhibition rate; 91 to 100%)
- Herbicidal effects Cyperus serotinus ([8]; derivative 5 g/a): 5 (Growth inhibition rate; 96 to 100%)
- Herbicidal effects Cyperus serotinus ([8]; derivative 10 g/a): 5 (Growth inhibition rate; 96 to 100%)
- Herbicidal effects Eleocharis kuroguwai ([9]; derivative 5 g/a): 1 (Growth inhibition rate; 16 to 35%)
- Herbicidal effects Eleocharis kuroguwai ([9]; derivative 10 g/a): 2 (Growth inhibition rate; 36 to 55%)
- Herbicidal effects Sagittaria pygmaea ([10]; derivative 5 g/a): 5 (Growth inhibition rate; 96 to 100%)
- Herbicidal effects Sagittaria pygmaea ([10]; derivative 10 g/a): 5 (Growth inhibition rate; 96 to 100%)
- Herbicidal effects Scirpus joncoides ([11]; derivative 5 g/a): 3 (Growth inhibition rate; 56 to 75%)
- Herbicidal effects Scirpus joncoides ([11]; derivative 10 g/a): 5 (Growth inhibition rate; 96 to 100%)
- Herbicidal effects Broad leaf ([12]; derivative 5 g/a): 5 (Growth inhibition rate; 96 to 100%)
- Herbicidal effects Broad leaf ([12]; derivative 10 g/a): 5 (Growth inhibition rate; 96 to 100%)
- Herbicidal effects Barnyard grass ([13]; derivative 5 g/a): 1 (Growth inhibition rate; 16 to 35%)
- Herbicidal effects Barnyard grass ([13]; derivative 10 g/a): 2 (Growth inhibition rate; 36 to 55%)
- Crop injury against transplanted rice ([14]; derivative 5 g/a): 0 (Growth-inhibition rate; 0 to 15%)
- Crop injury against transplanted rice ([14]; derivative 10 g/a): 0 (Growth-inhibition rate; 0 to 15%)

SMILES: CS(=O)(=O)c1ccc(C(=O)C2C(=O)CCCC2=O)c(Cl)c1 [Compound E, 2-(2-chloro-4-mesylbenzoyl)cyclohexan-1,3-dione]
- Herbicidal effects Cyperus esculentus ([15]; E alone 50 g/ha): 8 (Growth inhibition rate; 80 to 89%)
- Herbicidal effects Cyperus esculentus ([15]; E alone 100 g/ha): 8 (Growth inhibition rate; 80 to 89%)
- Herbicidal effects Cyperus esculentus ([15]; E alone 200 g/ha): 8 (Growth inhibition rate; 80 to 89%)
- Herbicidal effects Barnyard grass ([16]; E alone 50 g/ha): 7 (Growth inhibition rate; 70 to 79%)
- Herbicidal effects Barnyard grass ([16]; E alone 100 g/ha): 9 (Growth inhibition rate; 90 to 98%)
- Herbicidal effects Barnyard grass ([16]; E alone 200 g/ha): 10 (Growth inhibition rate; 99 to 100%)
- Herbicidal effects Black Nightshade ([17]; E alone 50 g/ha): 7 (Growth inhibition rate; 70 to 79%)
- Herbicidal effects Black Nightshade ([17]; E alone 100 g/ha): 6 (Growth inhibition rate; 60 to 69%)
- Herbicidal effects Black Nightshade ([17]; E alone 200 g/ha): 9 (Growth inhibition rate; 90 to 98%)
- Herbicidal effects Tall Morningglory ([18]; E alone 50 g/ha): 6 (Growth inhibition rate; 60 to 69%)
- Herbicidal effects Tall Morningglory ([18]; E alone 100 g/ha): 7 (Growth inhibition rate; 70 to 79%)
- Herbicidal effects Tall Morningglory ([18]; E alone 200 g/ha): 10 (Growth inhibition rate; 99 to 100%)
- Herbicidal effects Velvetleaf ([19]; E alone 50 g/ha): 7 (Growth inhibition rate; 70 to 79%)
- Herbicidal effects Velvetleaf ([19]; E alone 100 g/ha): 7 (Growth inhibition rate; 70 to 79%)
- Herbicidal effects Velvetleaf ([19]; E alone 200 g/ha): 10 (Growth inhibition rate; 99 to 100%)
- Crop injury against corn ([20]; E alone 50 g/ha): 0 (Growth inhibition rate; 0 to 9%)
- Crop injury against corn ([20]; E alone 100 g/ha): 0 (Growth inhibition rate; 0 to 9%)
- Crop injury against corn ([20]; E alone 200 g/ha): 0 (Growth inhibition rate; 0 to 9%)
- Herbicidal effects Cyperus esculentus ([21]; E alone 50 g/ha): 6 (Growth inhibition rate; 60 to 69%)
- Herbicidal effects Cyperus esculentus ([21]; E alone 100 g/ha): 7 (Growth inhibition rate; 70 to 79%)
- Herbicidal effects Cyperus esculentus ([21]; E alone 200 g/ha): 8 (Growth inhibition rate; 80 to 89%)
- Herbicidal effects Barnyard grass ([22]; E alone 50 g/ha): 1 (Growth inhibition rate; 10 to 19%)
- Herbicidal effects Barnyard grass ([22]; E alone 100 g/ha): 2 (Growth inhibition rate; 20 to 29%)
- Herbicidal effects Barnyard grass ([22]; E alone 200 g/ha): 7 (Growth inhibition rate; 70 to 79%)
- Herbicidal effects Black Nightshade ([23]; E alone 50 g/ha): 9 (Growth inhibition rate; 90 to 98%)
- Herbicidal effects Black Nightshade ([23]; E alone 100 g/ha): 10 (Growth inhibition rate; 99 to 100%)
- Herbicidal effects Black Nightshade ([23]; E alone 200 g/ha): 10 (Growth inhibition rate; 99 to 100%)
- Herbicidal effects Tall Morningglory ([24]; E alone 50 g/ha): 6 (Growth inhibition rate; 60 to 69%)
- Herbicidal effects Tall Morningglory ([24]; E alone 100 g/ha): 7 (Growth inhibition rate; 70 to 79%)
- Herbicidal effects Tall Morningglory ([24]; E alone 200 g/ha): 9 (Growth inhibition rate; 90 to 98%)
- Herbicidal effects Velvetleaf ([25]; E alone 50 g/ha): 9 (Growth inhibition rate; 90 to 98%)
- Herbicidal effects Velvetleaf ([25]; E alone 100 g/ha): 10 (Growth inhibition rate; 99 to 100%)
- Herbicidal effects Velvetleaf ([25]; E alone 200 g/ha): 10 (Growth inhibition rate; 99 to 100%)
- Crop injury against corn ([26]; E alone 50 g/ha): 0 (Growth inhibition rate; 0 to 9%)
- Crop injury against corn ([26]; E alone 100 g/ha): 0 (Growth inhibition rate; 0 to 9%)
- Crop injury against corn ([26]; E alone 200 g/ha): 0 (Growth inhibition rate; 0 to 9%)
